US9617283B2, “Bicyclic heterocycle compounds and their uses in therapy” (ASTEX THERAPEUTICS LIMITED, priority 2012, dated 2017)
pEC50: −log10 of the molar value. Where a name gives a salt, the structure may show the parent alone. Read-outs that look alike come from different tables or passages of the source.

System: EVSA-T (human breast carcinoma)
Assay: Anti-proliferative activity, Alamar Blue assay, EVSA-T
Format: cell-based
[1] = Homo sapiens, EVSA-T, 72 h, EVSA-T cell line, 72 hours, Alamar Blue, read-out: EVSA-T prolif
[2] = Homo sapiens, EVSA-T, read-out: EC50 in EVSA-T cell line assays
[3] = EVSA-T cell line, 72 hours, Alamar Blue, dihydrochloride, read-out: EVSA-T prolif
[4] = Homo sapiens, EVSA-T cell line, 72 hours, Alamar Blue, read-out: EVSA-T prolif

Experimental: Anti-Proliferative Activity
The method is based on the ability of viable cells to reduce resazurin to its fluorescent product resorufin. For each proliferation assay cells are plated onto 96 well plates and allowed to recover for 16 hours prior to the addition of inhibitor compounds (in 0.1% DMSO v/v) for a further 72 hours. […] The anti-proliferative activities of compounds of the invention can be determined by measuring the ability of the compounds to inhibit growth in 3 cancer cell lines: • EVSA-T (human breast carcinoma) DSMZ cat. no.

| SMILES | pEC50 [1] | pEC50 [2] | pEC50 [3] | pEC50 [4] |
| --- | --- | --- | --- | --- |
| CCC1CC(=O)N(C[C@H]2CN[C@H](C)CN2CC(=O)N2CC(C)(C)c3ncc(Cc4ccc(F)cc4)cc32)C1 (single isomer, unassigned) [Example 82, (4R or 4S)-4-Ethyl-1-{[(2R,5R)-1-(2-{6-[(4-fluorophenyl)methyl]-3,3-dimethyl-1H,2H,3H-pyrrolo[3,2-b]pyridin-1-yl}-2-oxoethyl)-5-methylpiperazin-2-yl]methyl}pyrrolidin-2-one dihydrochloride] | 8.82 | > 6.00 | – | – |
| CCC1CC(=O)N(C[C@H]2CN[C@H](C)CN2CC(=O)N2CC(C)(C)c3cnc(Cc4ccc(F)cc4F)cc32)C1 (single isomer, unassigned) [Example 83, (4R or 4S)-1-{[(2R,5R)-1-(2-{6-[(2,4-Difluorophenyl)methyl]-3,3-dimethyl-1H,2H,3H-pyrrolo[3,2-c]pyridin-1-yl}-2-oxoethyl)-5-methylpiperazin-2-yl]methyl}-4-ethylpyrrolidin-2-one dihydrochloride] | 8.96 | > 6.00 | – | – |
| CCC1CC(=O)N(C[C@H]2CN[C@H](C)CN2CC(=O)N2CC(C)(C)c3ncc(Cc4ccc(F)cc4)cc32)C1 (single isomer, unassigned) [Example 86, (4R or 4S)-4-Ethyl-1-{[(2R,5R)-1-(2-{6-[(4-fluorophenyl)methyl]-3,3-dimethyl-1H,2H,3H-pyrrolo[3,2-b]pyridin-1-yl}-2-oxoethyl)-5-methylpiperazin-2-yl]methyl}pyrrolidin-2-one dihydrochloride] | – | – | 8.77 | – |
| CCC1CC(=O)N(C[C@H]2CN[C@H](C)CN2CC(=O)N2CC(C)(C)c3cnc(Cc4ccc(F)cc4F)cc32)C1 (single isomer, unassigned) [Example 87, (4R or 4S)-1-{[(2R,5R)-1-(2-{6-[(2,4-Difluorophenyl)methyl]-3,3-dimethyl-1H,2H,3H-pyrrolo[3,2-c]pyridin-1-yl}-2-oxoethyl)-5-methylpiperazin-2-yl]methyl}-4-ethylpyrrolidin-2-one dihydrochloride] | – | – | 8.92 | – |
| CCCC(F)(F)c1cc2c(cn1)C(C)(C)CN2C(=O)CN1C[C@@H](C)NC[C@@H]1CN1CC(CC)OCC1=O (single isomer, unassigned) [Example 88, 4-{[(2R,5R)-1-{2-[6-(1,1-Difluorobutyl)-3,3-dimethyl-1H,2H,3H-pyrrolo[3,2-c]pyridin-1-yl]-2-oxoethyl}-5-methylpiperazin-2-yl]methyl}-(R or S)-6-ethylmorpholin-3-one dihydrochloride] | – | > 6.00 | 7.85 | – |
| CCCC(F)(F)c1cc2c(cn1)C(C)(C)CN2C(=O)CN1C[C@@H](C)NC[C@@H]1CN1CC(CC)OCC1=O (single isomer, unassigned) [Example 89, 4-{[(2R,5R)-1-{2-[6-(1,1-Difluorobutyl)-3,3-dimethyl-1H,2H,3H-pyrrolo[3,2-c]pyridin-1-yl]-2-oxoethyl}-5-methylpiperazin-2-yl]methyl}-(R or S)-6-ethylmorpholin-3-one dihydrochloride] | – | – | 8.19 | – |
| C[C@@H]1CN(CC(=O)N2CC(C)(C)c3ncc(Cc4ccc(F)cc4)cc32)[C@@H](CN2CCOCCC2=O)CN1 [Example 2, 4-{[(2R,5R)-1-(2-{6-[(4-Fluorophenyl)methyl]-3,3-dimethyl-1H,2H,3H-pyrrolo[3,2-b]pyridin-1-yl}-2-oxoethyl)-5-methylpiperazin-2-yl]methyl}-1,4-oxazepan-5-one hydrochloride] | 8.19 | > 6.00 | – | – |
| C[C@@H]1CN(CC(=O)N2CC(C)(C)c3ncc(Cc4ccc(F)cc4)cc32)[C@@H](CN2C(=O)[C@@H]3CC[C@H]2C3)CN1 [Example 8, (1S,4R)-2-{[(2R,5R)-1-(2-{6-[(4-Fluorophenyl)methyl]-3,3-dimethyl-1H,2H,3H-pyrrolo[3,2-b]pyridin-1-yl}-2-oxoethyl)-5-methylpiperazin-2-yl]methyl}-2-azabicyclo[2.2.1]heptan-3-one dihydrochloride] | 8.15 | > 6.00 | – | – |
| C[C@@H]1CN(CC(=O)N2CC(C)(C)c3ncc(Cc4ccc(F)cc4)cc32)[C@@H](CN2C[C@@H](C)OC2=O)CN1 [Example 9, (5R)-3-{[(2R,5R)-1-(2-{6-[(4-Fluorophenyl)methyl]-3,3-dimethyl-1H,2H,3H-pyrrolo[3,2-b]pyridin-1-yl}-2-oxoethyl)-5-methylpiperazin-2-yl]methyl}-5-methyl-1,3-oxazolidin-2-one] | 8.23 | > 6.00 | – | – |
| C[C@@H]1CN(CC(=O)N2CC(C)(C)c3ncc(Cc4ccc(F)cc4)cc32)[C@@H](CN2CCC(F)(F)C2=O)CN1 [Example 11, 3,3-Difluoro-1-{[(2R,5R)-1-(2-{6-[(4-fluorophenyl)methyl]-3,3-dimethyl-1H,2H,3H-pyrrolo[3,2-b]pyridin-1-yl}-2-oxoethyl)-5-methylpiperazin-2-yl]methyl}pyrrolidin-2-one dihydrochloride] | – | – | – | 8.37 |
| C[C@@H]1CN(CC(=O)N2CC(C)(C)c3ncc(Cc4ccc(F)cc4)cc32)[C@@H](CN2Cc3ncccc3C2=O)CN1 [Example 15, 6-{[(2R,5R)-1-(2-{6-[(4-Fluorophenyl)methyl]-3,3-dimethyl-1H,2H,3H-pyrrolo[3,2-b]pyridin-1-yl}-2-oxoethyl)-5-methylpiperazin-2-yl]methyl}-5H,6H,7H-pyrrolo[3,4-b]pyridin-5-onne dihydrochloride] | – | – | – | 9.20 |
| C[C@@H]1CC(=O)N(C[C@H]2CN[C@H](C)CN2CC(=O)N2CC(C)(C)c3ncc(Cc4ccc(F)cc4)cc32)C1 [Example 16, (4R)-1-{[(2R,5R)-1-(2-{6-[(4-Fluorophenyl)methyl]-3,3-dimethyl-1H,2H,3H-pyrrolo[3,2-b]pyridin-1-yl}-2-oxoethyl)-5-methylpiperazin-2-yl]methyl}-4-methylpyrrolidin-2-one dihydrochloride] | 8.22 | – | – | – |
| C[C@H]1CC(=O)N(C[C@H]2CN[C@H](C)CN2CC(=O)N2CC(C)(C)c3ncc(Cc4ccc(F)cc4)cc32)C1 [Example 17, (4S)-1-{[(2R,5R)-1-(2-{6-[(4-Fluorophenyl)methyl]-3,3-dimethyl-1H,2H,3H-pyrrolo[3,2-b]pyridin-1-yl}-2-oxoethyl)-5-methylpiperazin-2-yl]methyl}-4-methylpyrrolidin-2-one dihydrochloride] | 8.51 | > 6.00 | – | – |
| C[C@@H]1CN(CC(=O)N2CC(C)(C)c3ncc(Cc4ccc(F)cc4)cc32)[C@@H](CN2CC(=O)NCC2=O)CN1 [Example 22, 1-{[(2R,5R)-1-(2-{6-[(4-Fluorophenyl)methyl]-3,3-dimethyl-1H,2H,3H-pyrrolo[3,2-b]pyridin-1-yl}-2-oxoethyl)-5-methylpiperazin-2-yl]methyl}piperazine-2,5-dione] | 8.04 | > 6.00 | – | – |
| C[C@@H]1CN(CC(=O)N2CC(C)(C)c3ncc(Cc4ccc(F)cc4)cc32)[C@@H](CN2C(=O)CO[C@@H](C)[C@H]2C)CN1 [Example 25, (5R,6S)-4-{[(2R,5R)-1-(2-{6-[(4-Fluorophenyl)methyl]-3,3-dimethyl-1H,2H,3H-pyrrolo[3,2-b]pyridin-1-yl}-2-oxoethyl)-5-methylpiperazin-2-yl]methyl}-5,6-dimethylmorpholin-3-one, dihydrochloride] | 8.72 | > 6.00 | – | – |
| C[C@@H]1CN(CC(=O)N2CC(C)(C)c3ncc(Cc4ccc(F)cc4)cc32)[C@@H](CN2C[C@H](C)N(C)CC2=O)CN1 [Example 43, (5S)-1-{[(2R,5R)-1-(2-{6-[(4-Fluorophenyl)methyl]-3,3-dimethyl-1H,2H,3H-pyrrolo[3,2-b]pyridin-1-yl}-2-oxoethyl)-5-methylpiperazin-2-yl]methyl}-4,5-dimethylpiperazin-2-one dihydrochloride] | 7.92 | > 6.00 | – | – |
| C[C@H]1CC(=O)N(C[C@H]2CN[C@H](C)CN2CC(=O)N2CC(C)(C)c3nnc(Cc4ccc(F)cc4F)cc32)C1 [Example 46, (4S)-1-{[(2R,5R)-1-(2-{3-[(2,4-Difluorophenyl)methyl]-7,7-dimethyl-5H,6H,7H-pyrrolo[3,2-c]pyridazin-5-yl}-2-oxoethyl)-5-methylpiperazin-2-yl]methyl}-4-methylpyrrolidin-2-one dihydrochloride] | 8.64 | > 6.00 | – | – |
| C[C@H]1CC(=O)N(C[C@H]2CN[C@H](C)CN2CC(=O)N2CC(C)(C)c3nnc(Cc4ccc(F)cc4)cc32)C1 [Example 47, (4S)-1-{[(2R,5R)-1-(2-{3-[(4-Fluorophenyl)methyl]-7,7-dimethyl-5H,6H,7H-pyrrolo[3,2-c]pyridazin-5-yl}-2-oxoethyl)-5-methylpiperazin-2-yl]methyl}-4-methylpyrrolidin-2-one dihydrochloride] | 8.54 | > 6.00 | – | – |
| C[C@@H]1CN(CC(=O)N2CC(C)(C)c3nnc(Cc4ccc(F)cc4F)cc32)[C@@H](CN2C[C@H](C)OCC2=O)CN1 [Example 52, (6S)-4-{[(2R,5R)-1-(2-{3-[(2,4-Difluorophenyl)methyl]-7,7-dimethyl-5H,6H,7H-pyrrolo[3,2-c]pyridazin-5-yl}-2-oxoethyl)-5-methylpiperazin-2-yl]methyl}-6-methylmorpholin-3-one] | – | > 6.00 | – | – |
| C[C@@H]1CN(CC(=O)N2CC(C)(C)c3nnc(Cc4ccc(F)cc4)cc32)[C@@H](CN2C[C@H](C)OCC2=O)CN1 [Example 53, (6S)-4-{[(2R,5R)-1-(2-{3-[(4-Fluorophenyl)methyl]-7,7-dimethyl-5H,6H,7H-pyrrolo[3,2-c]pyridazin-5-yl}-2-oxoethyl)-5-methylpiperazin-2-yl]methyl}-6-methylmorpholin-3-one] | – | > 6.00 | – | – |
| CCCC(F)(F)c1cc2c(nn1)C(C)(C)CN2C(=O)CN1C[C@@H](C)NC[C@@H]1CN1CC(C)(C)CC1=O [Example 55, 1-{[(2R,5R)-1-{2-[3-(1,1-Difluorobutyl)-7,7-dimethyl-5H,6H,7H-pyrrolo[3,2-c]pyridazin-5-yl]-2-oxoethyl}-5-methylpiperazin-2-yl]methyl}-4,4-dimethylpyrrolidin-2-one] | – | > 6.00 | – | – |
